Experimental findings from patent US20250221977A1, “NOVEL BENZOTHIOPHENE DERIVATIVE AND USE THEREOF AS BET INHIBITOR” (BENOBIO CO., LTD., priority 2022, published 2025) are described below.

pIC50: −log10 of the molar value.

The subject of the assay is HPAF, a human pancreatic cancer cell line. As to the kind of experiment: In vitro anticancer efficacy test on human pancreatic cancer cell line (CCK cell viability assay). The class given is cell-based. To be noted: for pIC50: HPAF cells, 96 hours, CCK assay. Here is the method: HPAF, a human pancreatic cancer cell line, was dispensed in a 96-well plate and incubated in a 37° C., 5% CO2 incubator for 24 hours. Thereafter, 10 μl of Examples and Comparative Examples were treated to each well at different concentrations (1 nM, 0.01 μM, 0.1 μM, 1 μM, 10 μM, 100 μM) and incubated for 96 hours. Each well was treated with a reagent using a CCK assay kit (Dong-In LS, D Plus CCK cell viability assay kit), and reacted in a 37° C., 5% CO2 incubator for 30 minutes to 1 hour, and then the absorbance was measured at a wavelength of 450 nm using a microplate reader (SpectraMax i3x, USA). The IC50 value was confirmed using the GraphPad Prism 5 (GraphPad Software, Inc., San Diego, USA) program from the results obtained at this time.

As a reminder, the pIC50 is the IC50 on a negative log10 scale, so that one unit is a factor of ten. A high value points to a low IC50. In turn, `CNC(=O)CCN(Cc1ccc(C(F)F)cc1)C(=O)c1cc2c(OC)ccc(-c3ccc(=O)n(C)c3)c2s1` [BBC1115, N-[[4-(difluoromethyl)phenyl]methyl]-4-methoxy-N-[3-(methylamino)-3-oxo-propyl]-7-(1-methyl-6-oxo-3-pyridyl)benzothiophene-2-carboxamide] showed a pIC50 (Homo sapiens, Pancreatic cancer cell) of 6.89. Besides, the “IC50 value for HPAF, times lower than Comparative Example 1” value (versus JQ1) is on record as “about 17.69 times”.
On to `Cc1sc2c(c1C)C(c1ccc(Cl)cc1)=N[C@@H](CC(=O)OC(C)(C)C)c1nnc(C)n1-2` [JQ1, reference compound], for which the pIC50 is 5.64.
